Experiments:
HCT116 = experiment: Proliferation assay (Alamar Blue / XTT), HCT116; format: cell-based; settings: Homo sapiens; cell line HCT-116 (colon)
MDA MB468 = experiment: Proliferation assay (Alamar Blue / XTT), MDA MB468; format: cell-based; settings: Homo sapiens, MDA-MB-468; cell line MDA-MB468 (breast)
A549 = experiment: Proliferation assay (Alamar Blue / XTT), A549; format: cell-based; settings: Homo sapiens; cell line A549 (lung)
SKOV-3 = experiment: Proliferation assay (Alamar Blue / XTT), SKOV-3; format: cell-based; settings: Homo sapiens, SK-OV-3; cell line SKOV-3 (ovaries)
U87MG = experiment: Proliferation assay (Alamar Blue / XTT), U87MG; format: cell-based; settings: Homo sapiens, U-87 MG; cell line U87MG (glioma)
PC-3 = experiment: Proliferation assay (Alamar Blue / XTT), PC-3; format: cell-based; settings: Homo sapiens, cell line PC3 (prostate)
NCI-H460 = experiment: Proliferation assay (Alamar Blue / XTT), NCI-H460; format: cell-based; settings: Homo sapiens; cell line NCI-H460 (lung)

Structure (SMILES) | EC50 (HCT116) | melting point | EC50 (A549) | EC50 (SKOV-3) | EC50 (U87MG) | EC50 (PC-3) | EC50 (NCI-H460) | EC50 (MDA MB468)
C=CCNC(=O)Nc1cnc2ccc(-c3cc(C)c(O)c(C)c3)cc2n1 [Compound 41, 1-Allyl-3-[7-(4-hydroxy-3,5-dimethylphenyl)quinoxalin-2-yl]urea] | 91 nM | – | 217 nM | – | 105 nM | 76 nM | 218 nM | 131 nM
Oc1c(Cl)cc(-c2ccc3ncc(NC(=S)NCc4ccccc4)nc3c2)cc1Cl [Compound 94, 1-Benzyl-3-[7-(3,5-dichloro-4-hydroxy-phenyl)-quinoxalin-2-yl]-thiourea] | 586 nM | 275 to 277 °C | 891 nM | – | 2080 nM | 821 nM | – | 169 nM
CCCNC(=O)Nc1cnc2ccc(-c3cc(Cl)c(O)c(Cl)c3)cc2n1 [Compound 73, 1-[7-(3,5-Dichloro-4-hydroxy-phenyl)-quinoxalin-2-yl]-3-propyl-urea] | 1560 nM | 295 to 296 °C | 3360 nM | – | 4140 nM | 1180 nM | – | 814 nM
CCCCNC(=S)Nc1cnc2ccc(-c3cc(Cl)c(O)c(Cl)c3)cc2n1 [Compound 87, 1-Butyl-3-[7-(3,5-dichloro-4-hydroxy-phenyl)-quinoxalin-2-yl]thiourea] | 1090 nM | 226 to 227 °C | 1530 nM | – | 2490 nM | 790 nM | – | 464 nM
Cc1cc(-c2ccc3ncc(NC(=O)Nc4cccs4)nc3c2)cc(C)c1O [Compound 15, 1-[7-(4-Hydroxy-3,5-dimethylphenyl)quinoxalin-2-yl]-3-thiophen-2-ylurea] | 475 nM | – | 836 nM | 1810 nM | 1340 nM | 309 nM | 714 nM | 835 nM
CC(C)NC(=O)Nc1cnc2ccc(-c3ccc(N)cc3)cc2n1 [Compound 68, 1-[7-(4-Amino-phenyl)-quinoxalin-2-yl]-3-isopropyl-urea] | 474 nM | > 300 °C | 626 nM | – | 529 nM | 453 nM | – | 1670 nM

Now those with a lower EC50 (HCT116), led by results:

EC50 (HCT116) | melting point | EC50 (A549) | EC50 (SKOV-3) | EC50 (U87MG) | EC50 (PC-3) | EC50 (NCI-H460) | Structure (SMILES) | EC50 (MDA MB468)
43 nM | 276 to 277 °C | 34 nM | 42 nM | 111 nM | 9 nM | 64 nM | CCCNC(=O)Nc1cnc2ccc(-c3cc(C)c(O)c(C)c3)cc2n1 [Compound 36, 1-[7-(4-Hydroxy-3,5-dimethylphenyl)quinoxalin-2-yl]-3-propylurea] | 43 nM
42 nM | – | 76 nM | 67 nM | 77 nM | 51 nM | 85 nM | Cc1cc(-c2ccc3ncc(NC(=O)NC4CCCCC4)nc3c2)cc(C)c1O [Compound 12, 1-Cyclohexyl-3-[7-(4-hydroxy-3,5-dimethylphenyl)quinoxalin-2-yl]urea] | 125 nM
30 nM | 269 to 271 °C | 23 nM | 45 nM | 13 nM | 15 nM | 60 nM | Cc1cc(-c2ccc3ncc(NC(=S)NC(C)C)nc3c2)cc(C)c1O [Compound 31, 1-[7-(4-Hydroxy-3,5-dimethylphenyl)quinoxalin-2-yl]-3-isopropylthiourea] | 25 nM
21 nM | 276 to 280 °C | 46 nM | 32 nM | 8 nM | 16 nM | 38 nM | CCCCNC(=O)Nc1cnc2ccc(-c3cc(C)c(O)c(C)c3)cc2n1 [Compound 18, 1-Butyl-3-[7-(4-hydroxy-3,5-dimethylphenyl)quinoxalin-2-yl]urea] | 30 nM
16 nM | 278 to 280 °C | 9 nM | 27 nM | 3 nM | 9 nM | 30 nM | CCCCNC(=S)Nc1cnc2ccc(-c3cc(C)c(O)c(C)c3)cc2n1 [Compound 32, 1-Butyl-3-[7-(4-hydroxy-3,5-dimethylphenyl)quinoxalin-2-yl]thiourea] | 20 nM
